From US20240190849A1, “AMINOPYRIMIDINE COMPOUNDS AND METHODS OF THEIR USE” (TYRA BIOSCIENCES, INC., priority 2021, published 2024)

Experiments:
[1] = target: T1, FGFR1 (Homo sapiens, UniProt P11362); test: Kinase binding assay (kinase-tagged T7 phage, affinity beads, qPCR readout), FGFR1; conditions: FGFR binding data
T1 construct: made in house; host or cells: E. coli derived from BL21, infected with T7 phage
Summary of the method: (§1)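 Phage lysate kinase + liganded magnetic beads + compound, 11-pt 3-fold series, 0.9% DMSO; 1 h RT shaking. Wash, elute 30 min with 0.5 μM non-biotinylated ligand; qPCR readout. Hill fit, slope −1 → Kd.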

[2] = target: T2, FGFR2 (Homo sapiens, UniProt P21802); test: Kinase binding assay (kinase-tagged T7 phage, affinity beads, qPCR readout), FGFR2; conditions: FGFR binding data
T2 construct: made in house; host or cells: E. coli derived from BL21, infected with T7 phage
Summary of the method: as §1

[3] = target: T3, FGFR3 (Homo sapiens, UniProt P22607); test: Kinase binding assay (kinase-tagged T7 phage, affinity beads, qPCR readout), FGFR3; conditions: FGFR binding data
T3 construct: made in house; host or cells: E. coli derived from BL21, infected with T7 phage
Summary of the method: as §1

[4] = target: T4, FGFR3 (V555M) (Homo sapiens, UniProt P22607, V555M); test: Kinase binding assay (kinase-tagged T7 phage, affinity beads, qPCR readout), FGFR3 (V555M); conditions: FGFR binding data
T4 construct: made in house; host or cells: E. coli derived from BL21, infected with T7 phage
Summary of the method: as §1

[5] = test system: SNU-16 (Gastric Carcinoma), FGFR2 amplification; test: Cancer cell viability assay (Cell Titer-Glo), SNU-16; format: cell-based; conditions: Homo sapiens, SNU-16 cells, 72 hours, read-out: SNU16 FGFR2 (IC50 nM)
Excerpt: RT112/84, UM-UC-14, SNU-16 and KG-1 Cancer Cell Line Cell Viability Assays
To detect the change of intracellular ATP by Cell Titer-Glo@ and to evaluate the inhibitory effect of the compounds on cancer cell lines by determining the in vitro IC50 value of the compounds.
Cell Titer-Glo@ 2.0 Luminescent cell viability assay reagent was purchased from Promega (Madison, WI). RT112/84, SNU-16, and KG-1 cell lines were purchased from American Type Culture Collection (Manassas, VA). UM-UC-14 cell line was purchased from Sigma (St. Louis, MO). RT112/84, UM-UC-14, SNU-16, and KG-1 cells were cultured in RPMI1640 media supplemented with 10% fetal bovine serum. Cultures were maintained at 37° C. in a humidified atmosphere of 5% CO2 and 95% air.
Cell Viability Assay Procedure: Cells were plated in 96-well clear bottom/white plates (Corning #3903) at 10,000 cells/well in 100 μl of media, incubated overnight. The next day, test compound DMSO stock solutions were made at 10 mM and 2 μM final concentration. Compounds were then added to cells in a 9-dose, […] dilution series starting at 30 μM with an HP 300e Digital Dispenser (each dose was applied in triplicate). DMSO was backfilled to each well up to 301 nL total volume of test compound+DMSO, and a total of 301 nL DMSO was added to a control/no test compound well in triplicate. The cells in cell culture plates were incubated with the compounds at 37° C. and 5% CO2 for 72 hours. Then 50 μl of Cell Titer Glo 2.0 reagent was added to each well of the cell culture plates. The contents were covered from light and mixed on an orbital shaker at room temperature for 10 min. Luminescence was recorded by a Synergy H1 Microplate Reader (Biotek, Winooski, VT). Cells were assessed as a percentage of DMSO only treated control cells. Curves were plotted and IC50 values were calculated using the GraphPad Prism 8 program based on a sigmoidal dose-response equation (4 parameter).

T1 sequence (P11362 22-822): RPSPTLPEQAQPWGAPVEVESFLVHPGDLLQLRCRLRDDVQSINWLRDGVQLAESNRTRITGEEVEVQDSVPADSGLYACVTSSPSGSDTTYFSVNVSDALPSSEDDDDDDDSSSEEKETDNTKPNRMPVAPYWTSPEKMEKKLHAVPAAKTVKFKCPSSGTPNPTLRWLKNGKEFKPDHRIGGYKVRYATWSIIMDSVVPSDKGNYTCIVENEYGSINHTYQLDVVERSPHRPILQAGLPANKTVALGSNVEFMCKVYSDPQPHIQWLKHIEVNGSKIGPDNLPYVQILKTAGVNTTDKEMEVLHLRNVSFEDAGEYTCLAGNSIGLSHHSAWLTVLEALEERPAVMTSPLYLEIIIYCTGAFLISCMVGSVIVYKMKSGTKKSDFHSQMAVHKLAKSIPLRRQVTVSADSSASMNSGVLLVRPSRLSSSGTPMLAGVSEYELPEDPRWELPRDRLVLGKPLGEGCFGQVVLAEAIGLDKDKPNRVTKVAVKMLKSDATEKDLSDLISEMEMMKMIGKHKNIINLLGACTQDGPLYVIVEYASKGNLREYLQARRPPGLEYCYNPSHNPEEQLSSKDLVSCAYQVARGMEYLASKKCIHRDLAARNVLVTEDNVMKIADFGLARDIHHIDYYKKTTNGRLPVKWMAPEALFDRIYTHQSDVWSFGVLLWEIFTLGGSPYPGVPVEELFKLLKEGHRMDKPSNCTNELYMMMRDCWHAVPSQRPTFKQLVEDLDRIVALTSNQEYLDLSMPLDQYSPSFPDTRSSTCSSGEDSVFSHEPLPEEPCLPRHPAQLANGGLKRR
T3 sequence (P22607 23-806): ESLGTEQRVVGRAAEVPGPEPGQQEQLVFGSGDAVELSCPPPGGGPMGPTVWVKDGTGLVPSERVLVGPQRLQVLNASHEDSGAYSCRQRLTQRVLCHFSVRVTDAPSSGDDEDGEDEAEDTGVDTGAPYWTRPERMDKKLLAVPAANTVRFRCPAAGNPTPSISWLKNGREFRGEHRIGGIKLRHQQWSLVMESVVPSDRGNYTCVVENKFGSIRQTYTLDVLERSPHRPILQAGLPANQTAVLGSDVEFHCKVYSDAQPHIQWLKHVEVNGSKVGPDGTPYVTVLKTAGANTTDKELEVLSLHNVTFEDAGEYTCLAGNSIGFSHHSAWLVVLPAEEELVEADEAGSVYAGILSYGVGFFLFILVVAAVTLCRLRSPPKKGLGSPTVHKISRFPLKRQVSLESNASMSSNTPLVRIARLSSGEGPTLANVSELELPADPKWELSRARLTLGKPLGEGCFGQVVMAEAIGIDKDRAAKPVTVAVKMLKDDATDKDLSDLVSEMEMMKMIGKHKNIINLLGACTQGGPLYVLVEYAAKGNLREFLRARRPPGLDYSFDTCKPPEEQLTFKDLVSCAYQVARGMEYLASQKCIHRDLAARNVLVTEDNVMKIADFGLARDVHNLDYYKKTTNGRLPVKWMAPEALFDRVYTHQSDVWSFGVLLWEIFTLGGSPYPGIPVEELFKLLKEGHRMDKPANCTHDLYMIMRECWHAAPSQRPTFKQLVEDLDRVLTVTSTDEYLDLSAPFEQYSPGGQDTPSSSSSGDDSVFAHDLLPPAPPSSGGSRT
T2 sequence (P21802 22-821): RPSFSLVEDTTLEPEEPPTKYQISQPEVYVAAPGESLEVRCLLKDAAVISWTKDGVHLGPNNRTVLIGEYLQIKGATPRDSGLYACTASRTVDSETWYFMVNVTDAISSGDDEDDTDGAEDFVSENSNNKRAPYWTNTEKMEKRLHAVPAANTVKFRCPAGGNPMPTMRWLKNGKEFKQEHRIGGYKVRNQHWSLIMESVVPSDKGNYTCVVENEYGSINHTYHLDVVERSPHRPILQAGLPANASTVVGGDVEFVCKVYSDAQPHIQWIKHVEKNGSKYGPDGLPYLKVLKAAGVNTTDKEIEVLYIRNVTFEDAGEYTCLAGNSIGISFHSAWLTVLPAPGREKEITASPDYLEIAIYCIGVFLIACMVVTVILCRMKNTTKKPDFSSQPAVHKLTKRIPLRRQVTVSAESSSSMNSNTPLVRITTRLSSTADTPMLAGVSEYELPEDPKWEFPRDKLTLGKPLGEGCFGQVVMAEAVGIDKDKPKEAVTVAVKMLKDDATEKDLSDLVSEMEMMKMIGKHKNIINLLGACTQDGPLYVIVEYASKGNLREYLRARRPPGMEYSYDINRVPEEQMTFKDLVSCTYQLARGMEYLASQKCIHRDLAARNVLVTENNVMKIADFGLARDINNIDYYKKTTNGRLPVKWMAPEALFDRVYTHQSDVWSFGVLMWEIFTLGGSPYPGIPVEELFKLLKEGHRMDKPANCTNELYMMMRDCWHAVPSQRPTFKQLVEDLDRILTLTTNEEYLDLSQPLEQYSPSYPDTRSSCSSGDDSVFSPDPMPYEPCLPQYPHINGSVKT
T4 sequence (P22607 23-806 V555M): as the sequence (P22607 23-806) above, with V533M counted along it

SMILES	Kd [1] [nM]	Kd [2] [nM]	Kd [3] [nM]	Kd [4] [nM]	IC50 [5] [nM]
C=CC(=O)Nc1cnc2c(c1)c(C)cn2-c1nc(Nc2ccn(C)n2)ncc1C [Example 97, N-[3-methyl-1-[5-methyl-2-[(1-methylpyrazol-3-yl)amino]pyrimidin-4-yl]pyrrolo[2,3-b]pyridin-5-yl]prop-2-enamide]	0.1 to 100	0.1 to 100	0.1 to 100	0.1 to 100	0.1 to 100
C=CC(=O)Nc1ccc2c(c1)c(C)cn2-c1nc(Nc2ccn(CCO)n2)ncc1C [Example 100, N-[1-[2-[[1-(2-hydroxyethyl)pyrazol-3-yl]amino]-5-methyl-pyrimidin-4-yl]-3-methyl-indol-5-yl]prop-2-enamide]	0.1 to 100	0.1 to 100	0.1 to 100	0.1 to 100	0.1 to 100
C=CC(=O)Nc1ccc2c(c1)c(C)cn2-c1nc(Nc2cc(C)n(C)n2)ncc1C [Example 102, N-[1-[2-[(1,5-dimethylpyrazol-3-yl)amino]-5-methyl-pyrimidin-4-yl]-3-methyl-indol-5-yl]prop-2-enamide]	0.1 to 100	0.1 to 100	0.1 to 100	0.1 to 100	0.1 to 100
C=CC(=O)Nc1ccc2c(-c3ccnc(Nc4cc(C)n(C)n4)n3)cn(C)c2c1 [Example 103, N-[3-[2-[(1,5-dimethylpyrazol-3-yl)amino]pyrimidin-4-yl]-1-methyl-indol-6-yl]prop-2-enamide]	250 to 1000	100 to 250	0.1 to 100	100 to 250	0.1 to 100
C=CC(=O)Nc1ccc2c(c1)c(C)cn2-c1nc(Nc2cn(CCOC)nc2C)ncc1F [Example 202, N-[1-[5-fluoro-2-[[1-(2-methoxyethyl)-3-methyl-pyrazol-4-yl]amino]pyrimidin-4-yl]-3-methyl-indol-5-yl]prop-2-enamide]	0.1 to 100	0.1 to 100	0.1 to 100	0.1 to 100	–
C=CC(=O)Nc1ccc2c(c1)c(C)cn2-c1nc(Nc2cnn(CCOC(C)C)c2)ncc1F [Example 203, N-[1-[5-fluoro-2-[[1-(2-isopropoxyethyl)pyrazol-4-yl]amino]pyrimidin-4-yl]-3-methyl-indol-5-yl]prop-2-enamide]	0.1 to 100	0.1 to 100	0.1 to 100	0.1 to 100	–
C=CC(=O)Nc1ccc2c(c1)c(C)cn2-c1nc(Nc2cnn(CC(C)OC)c2)ncc1F (stereo not drawn) [Example 204, N-[1-[5-fluoro-2-[[1-(2-methoxypropyl)pyrazol-4-yl]amino]pyrimidin-4-yl]-3-methyl-indol-5-yl]prop-2-enamide]	0.1 to 100	0.1 to 100	0.1 to 100	0.1 to 100	–
C=CC(=O)Nc1ccc2c(c1)c(C)cn2-c1nc(Nc2cnn(C[C@H](C)OC)c2)ncc1F [Example 205]	0.1 to 100	0.1 to 100	0.1 to 100	0.1 to 100	–
C=CC(=O)Nc1ccc2c(c1)c(C)cn2-c1cc(Nc2cn(C)nc2C)nnc1C [Example 209, N-[1-[6-[(1,3-dimethylpyrazol-4-yl)amino]-3-methyl-pyridazin-4-yl]-3-methyl-indol-5-yl]prop-2-enamide]	> 1000	> 1000	> 1000	> 1000	–
C=CC(=O)Nc1ccc2c(c1)c(C)cn2-c1nc(Nc2cnn(C[C@@H](C)OC)c2)ncc1F [Example 210, N-[1-[5-fluoro-2-[[1-[(2R)-2-methoxypropyl]pyrazol-4-yl]amino]pyrimidin-4-yl]-3-methyl-indol-5-yl]prop-2-enamide]	0.1 to 100	0.1 to 100	0.1 to 100	0.1 to 100	–
Cc1nn(C)cc1Nc1ncc(F)c(-n2cc(C)c3cc(NC(=O)/C=C/CN4CCOCC4)cnc32)n1 [Example 213, (E)-N-[1-[2-[(1,3-dimethylpyrazol-4-yl)amino]-5-fluoro-pyrimidin-4-yl]-3-methyl-pyrrolo[2,3-b]pyridin-5-yl]-4-morpholino-but-2-enamide]	> 1000	> 1000	> 1000	> 1000	–
C=CC(=O)Nc1ccc2c(c1)c(C)cn2-c1nc(Nc2cnn(C[C@@H](C)O)c2C)ncc1F [Example 216, N-[1-[5-fluoro-2-[[1-[(2R)-2-hydroxypropyl]-5-methyl-pyrazol-4-yl]amino]pyrimidin-4-yl]-3-methyl-indol-5-yl]prop-2-enamide]	0.1 to 100	0.1 to 100	0.1 to 100	0.1 to 100	–
C=CC(=O)Nc1ccc2c(c1)c(C)cn2-c1ncnc(Nc2cnn(C)c2)n1 [Example 218, N-[3-methyl-1-[4-[(1-methylpyrazol-4-yl)amino]-1,3,5-triazin-2-yl]indol-5-yl]prop-2-enamide]	0.1 to 100	0.1 to 100	0.1 to 100	0.1 to 100	–
C=CC(=O)Nc1ccc2c(c1)c(C)cn2-c1cc(Nc2cnn(C)c2)ncn1 [Example 219, N-[3-methyl-1-[6-[(1-methylpyrazol-4-yl)amino]pyrimidin-4-yl]indol-5-yl]prop-2-enamide]	> 1000	250 to 1000	100 to 250	250 to 1000	–
C=CC(=O)Nc1ccc2c(c1)c(C)cn2-c1ncnc(Nc2cn(C)nc2C)n1 [Example 220, N-[1-[4-[(1,3-dimethylpyrazol-4-yl)amino]-1,3,5-triazin-2-yl]-3-methyl-indol-5-yl]prop-2-enamide]	250 to 1000	250 to 1000	100 to 250	100 to 250	–
C=CC(=O)Nc1ccc2c(c1)c(C)cn2-c1cc(Nc2cnn(C)c2)nnc1C [Example 221, N-[3-methyl-1-[3-methyl-6-[(1-methylpyrazol-4-yl)amino]pyridazin-4-yl]indol-5-yl]prop-2-enamide]	> 1000	> 1000	> 1000	> 1000	–
C=CC(=O)Nc1ccc2c(c1)c(C)cn2-c1cc(Nc2cn(C)nc2C)ncn1 [Example 222, N-[1-[6-[(1,3-dimethylpyrazol-4-yl)amino]pyrimidin-4-yl]-3-methyl-indol-5-yl]prop-2-enamide]	> 1000	> 1000	> 1000	> 1000	–
C=CC(=O)Nc1ccc2c(c1)c(C)cn2-c1cc(Nc2cnn(C)c2)ncc1C [Example 223, N-[3-methyl-1-[5-methyl-2-[(1-methylpyrazol-4-yl)amino]-4-pyridyl]indol-5-yl]prop-2-enamide]	0.1 to 100	0.1 to 100	0.1 to 100	0.1 to 100	–
C=CC(=O)Nc1ccc2c(c1)c(C)cn2-c1cc(Nc2cn(C)nc2C)ncc1C [Example 224, N-[1-[2-[(1,3-dimethylpyrazol-4-yl)amino]-5-methyl-4-pyridyl]-3-methyl-indol-5-yl]prop-2-enamide]	250 to 1000	250 to 1000	100 to 250	100 to 250	–
C=CC(=O)Nc1ccc2c(c1)c(C)cn2-c1nc(Nc2cn(C)nc2C)nnc1Cl [Example 225, N-[1-[6-chloro-3-[(1,3-dimethylpyrazol-4-yl)amino]-1,2,4-triazin-5-yl]-3-methyl-indol-5-yl]prop-2-enamide]	> 1000	> 1000	250 to 1000	250 to 1000	–
C=CC(=O)Nc1ccc2c(c1)c(C)c(C)n2-c1nc(Nc2cnn(C)c2)ncc1F [Example 226, N-[1-[5-fluoro-2-[(1-methylpyrazol-4-yl)amino]pyrimidin-4-yl]-2,3-dimethyl-indol-5-yl]prop-2-enamide]	0.1 to 100	0.1 to 100	0.1 to 100	0.1 to 100	–
C=CC(=O)Nc1ccc2c(c1)cc(C)n2-c1nc(Nc2cnn(C)c2)ncc1F [Example 227, N-[1-[5-fluoro-2-[(1-methylpyrazol-4-yl)amino]pyrimidin-4-yl]-2-methyl-indol-5-yl]prop-2-enamide]	100 to 250	0.1 to 100	0.1 to 100	0.1 to 100	–
C=CC(=O)Nc1ccc2c(c1)c1ccccc1n2-c1nc(Nc2cnn(C)c2)ncc1F [Example 228, N-[9-[5-fluoro-2-[(1-methylpyrazol-4-yl)amino]pyrimidin-4-yl]carbazol-3-yl]prop-2-enamide]	0.1 to 100	0.1 to 100	0.1 to 100	> 1000	–
